# Measurements reported in patent US20220091128A1, “SYSTEM AND METHOD FOR LIGAND THERMAL ANALYSIS” (Portland State University, priority 2019, published 2022).
# Values joined by “and” are separate entries in the source; they are usually repeats but may differ in a detail not shown here. Equal values may be shown once. Read-outs that look alike come from different tables or passages of the source.
# What was measured:
# [1] = target: T1, human serum albumin (HSA) (Homo sapiens, UniProt P02768); test: DSC thermograms of HSA with ligand (single-ligand titration); assay type: binding; conditions: for Binding Site stoichiometry / Implied number of sites: from dose response curves with HSA; for Tm / ΔG37^O / ΔHcal / ΔScal: thermal denaturation of HSA
# T1 construct: purchased Sigma Aldrich (St. Louis, Mo.)
# Experimental: Chemicals and reagents: Plasma and highly pure plasma proteins are sourced from commercial suppliers. Standard reagents are sourced from commercial suppliers. Samples are prepared in standard phosphate-buffered saline (PBS) buffer. In some examples, human plasma and serum albumin were purchased from Sigma Aldrich (St. Louis, Mo.) and received as lyophilized powder. Plasma was product number: P9523, lot number: SLBT0202. […] In vivo, the standard state of HSA is most certainly bound to some extent by fatty acids. Plasma and HSA stock solutions were prepared by re-suspending the appropriate amount of powder in buffer. Samples were prepared by diluting stock solutions to a final concentration of 1.5-2.0 mg/mL.
# Protein concentration was approximately 2 mg/ml.
# In a DSC melting experiment, the supplemental power supplied to the sample cell (in μW) necessary to keep the sample temperature equal to the reference temperature is continually monitored. […] Supplemental power is directly related to the molar heat capacity at constant pressure, ΔCp. Curves of ΔCp versus T provide an evaluation of the thermodynamic enthalpy. To enable direct comparisons in some cases, power (μW) versus T plots (instead of ΔCp versus T curves) were used for the following reason.
# Analysis of DSC data was performed using the Nanoanalyze software package, version 3.7.5, provided by T.A. Instruments. […]
# From the thermograms, semi-quantitative evaluations of the thermodynamic parameters ΔHcal, ΔScal and ΔGcal(37° C.) were obtained at each ligand concentration.
# These curves were constructed from titrations of DM1 with HSA. The Tm and ΔGcal(37° C.) were evaluated. The values were normalized against standard HSA and plotted versus ligand concentration to provide the dose curves in FIG. 20A (Tm) and FIG. 20B (ΔGcal(37° C.)).
# Natural HSA samples were prepared at pH 6.0 and pH 8.0 and examined by DSC. […] From DSC melting curves thermodynamic parameters for HSA/ligand mixtures were evaluated.
# [2] = target: T1, human serum albumin (HSA); test: Two-ligand (NAP + BCG) binding to standard HSA by DSC
# biotinylated HSA (HSAB) = biotinylated HSA (HSAB) (Homo sapiens, UniProt P02768); test: DSC thermograms of biotinylated HSA (HSAB) with ligands; assay type: binding
# HSA [3] = target: T2, HSA (Homo sapiens, UniProt P02768); test: Drug screening: HSA binding constants from DSC thermograms
# Experimental: (§1) Ligand solubilization: Stock solutions of aqueous insoluble ligands in organic solvents were pipetted into microcentrifuge tubes to yield a desired amount of drug for a 1 mL solution. The microcentrifuge tubes were placed into a vacuum concentrator (Savant SpeedVac Model SC100), and the organic solvents were evaporated, resulting in solid drug in the tube. To each tube, HSA is added at a predetermined concentration with standard buffer to provide a 1 mL working solution.
# (§2) In total binding of 28 drug compounds to HSA was examined by obtaining thermograms.
# HSA [4] = target: T2, HSA; parameters: purchased Sigma Aldrich (St. Louis, Mo.); conditions: cited from earlier work; for Kd: binding to HSA, read-out: Average Literature KD
# human plasma = test: DSC thermograms of plasma with ligand; assay type: binding; conditions: plasma
# HSA [5] = target: T2, HSA
# Experimental: as §1, §2
# [6] = after several days; cited from earlier work
# [7] = ligand 22.5 μM (so in the source)
# T2 sequence (P02768 25-609): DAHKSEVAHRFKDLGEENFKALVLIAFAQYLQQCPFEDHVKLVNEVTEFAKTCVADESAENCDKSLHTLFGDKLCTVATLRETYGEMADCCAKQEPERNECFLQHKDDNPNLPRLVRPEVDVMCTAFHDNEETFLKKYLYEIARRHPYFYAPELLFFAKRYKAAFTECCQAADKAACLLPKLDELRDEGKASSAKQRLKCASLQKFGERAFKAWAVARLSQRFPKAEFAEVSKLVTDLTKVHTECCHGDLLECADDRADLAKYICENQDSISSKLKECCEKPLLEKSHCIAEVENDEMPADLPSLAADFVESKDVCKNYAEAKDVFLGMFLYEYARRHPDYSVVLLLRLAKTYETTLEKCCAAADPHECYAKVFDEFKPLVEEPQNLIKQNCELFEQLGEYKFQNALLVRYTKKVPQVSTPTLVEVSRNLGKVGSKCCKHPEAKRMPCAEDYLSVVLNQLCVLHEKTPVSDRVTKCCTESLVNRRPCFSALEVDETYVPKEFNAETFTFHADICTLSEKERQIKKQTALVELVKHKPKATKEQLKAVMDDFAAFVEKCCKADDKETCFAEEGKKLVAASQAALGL
# T1 sequence (P02768 25-609): as above
# Sequence of biotinylated HSA (HSAB) (P02768 25-609): as above
compound,measurement,setting,value
"Cc1c(C2(c3cc(Br)c(O)c(Br)c3C)OS(=O)(=O)c3ccccc32)cc(Br)c(O)c1Br [BCG, bromocresol green]",increase of ΔGcal(37° C.) versus titration curve at pH 7.4,"[1]; HSA + ligand at pH 6.0, as much as",~5 kcal/mol
same,lowering of ΔGcal(37° C.) versus titration curve at pH 7.4,[1]; HSA + ligand at pH 8.0,~2 kcal/mol
same,ΔHcal of HSA/ligand,"[1]; HSA, 100 μM ligand (text, FIG. 10B)",165.6 kcal/mol and 166 kcal/mol
same,Binding Site stoichiometry,[1],3
same,Implied number of sites,[1],6
same,Tm,[1]; ligand 1 μM,62.9 °C
same,ΔG37^O,[1]; ligand 1 μM,13.11 kcal/mol
same,ΔHcal,[1]; ligand 1 μM,170.12 kcal/mol
same,ΔScal,[1]; ligand 1 μM,506.23 cal/molK
same,Tm,[1]; ligand 10 μM,63.3 °C
same,ΔG37^O,[1]; ligand 10 μM,13.83 kcal/mol
same,ΔHcal,[1]; ligand 10 μM,176.99 kcal/mol
same,ΔScal,[1]; ligand 10 μM,526.08 cal/molK
same,Tm,[1]; [7],70.8 °C
same,ΔG37^O,[1]; [7],16.43 kcal/mol
same,ΔHcal,[1]; [7],167.24 kcal/mol
same,ΔScal,[1]; [7],486.25 cal/molK
same,Tm,[1]; ligand 25 μM,63.6 °C
same,ΔG37^O,[1]; ligand 25 μM,14.39 kcal/mol
same,ΔHcal,[1]; ligand 25 μM,182.05 kcal/mol
same,ΔScal,[1]; ligand 25 μM,540.59 cal/molK
same,Tm,[1]; ligand 50 μM,64.0 °C
same,ΔG37^O,[1]; ligand 50 μM,15.19 kcal/mol
same,ΔHcal,[1]; ligand 50 μM,189.75 kcal/mol
same,ΔScal,[1]; ligand 50 μM,562.81 cal/molK
same,Tm,[1]; ligand 75 μM,64.6 °C
same,ΔG37^O,[1]; ligand 75 μM,15.33 kcal/mol
same,ΔHcal,[1]; ligand 75 μM,187.76 kcal/mol
same,ΔScal,[1]; ligand 75 μM,555.95 cal/molK
same,Tm,[1]; ligand 125 μM,67.2 °C
same,ΔG37^O,[1]; ligand 125 μM,16.18 kcal/mol
same,ΔHcal,[1]; ligand 125 μM,182.33 kcal/mol
same,ΔScal,[1]; ligand 125 μM,535.71 cal/molK
same,Tm,[1]; ligand 150 μM,69.0 °C
same,ΔG37^O,[1]; ligand 150 μM,16.74 kcal/mol
same,ΔHcal,[1]; ligand 150 μM,178.84 kcal/mol
same,ΔScal,[1]; ligand 150 μM,522.66 cal/molK
same,Tm,[1]; ligand 175 μM,69.1 °C
same,ΔG37^O,[1]; ligand 175 μM,15.92 kcal/mol
same,ΔHcal,[1]; ligand 175 μM,169.77 kcal/mol
same,ΔScal,[1]; ligand 175 μM,496.04 cal/molK
same,Tm,[1]; ligand 200 μM,70.3 °C
same,ΔG37^O,[1]; ligand 200 μM,16.24 kcal/mol
same,ΔHcal,[1]; ligand 200 μM,167.42 kcal/mol
same,ΔScal,[1]; ligand 200 μM,487.44 cal/molK
same,Binding Chemical Potentials (ΔG^O37),"[2]; HSA25BCG (HSA + 25 μM BCG), [NAP] 0 μM",14.00 kcal/mol
same,Binding Chemical Potentials (ΔG^O37),"[2]; HSA25NAP (pre-bound 25 μM NAP), [BCG] 50 μM",18.33 kcal/mol
same,Binding Chemical Potentials (ΔG^O37),"[2]; HSA25NAP (pre-bound 25 μM NAP), [BCG] 75 μM",19.49 kcal/mol
same,Binding Chemical Potentials (ΔG^O37),"[2]; HSA25NAP (pre-bound 25 μM NAP), [BCG] 150 μM",19.61 kcal/mol
same,Binding Chemical Potentials (ΔG^O37),"[2]; HSA50BCG (HSA + 50 μM BCG), [NAP] 0 μM",15.13 kcal/mol
same,Binding Chemical Potentials (ΔG^O37),"[2]; HSA50NAP (pre-bound 50 μM NAP), [BCG] 50 μM",18.27 kcal/mol
same,Binding Chemical Potentials (ΔG^O37),"[2]; HSA50NAP (pre-bound 50 μM NAP), [BCG] 75 μM",18.47 kcal/mol
same,Binding Chemical Potentials (ΔG^O37),"[2]; HSA50NAP (pre-bound 50 μM NAP), [BCG] 150 μM",19.29 kcal/mol
same,Binding Chemical Potentials (ΔG^O37),"[2]; HSA75BCG (HSA + 75 μM BCG), [NAP] 0 μM",15.33 kcal/mol
same,Binding Chemical Potentials (ΔG^O37),"[2]; HSA75NAP (pre-bound 75 μM NAP), [BCG] 50 μM",19.51 kcal/mol
same,Binding Chemical Potentials (ΔG^O37),"[2]; HSA75NAP (pre-bound 75 μM NAP), [BCG] 75 μM",20.42 kcal/mol
same,Binding Chemical Potentials (ΔG^O37),"[2]; HSA75NAP (pre-bound 75 μM NAP), [BCG] 150 μM",21.08 kcal/mol
same,Binding Chemical Potentials (ΔG^O37),"[2]; WT HSA with 50 μM BCG, [NAP] 0 μM",15.19 kcal/mol
same,Binding Chemical Potentials (ΔG^O37),"[2]; WT HSA with 50 μM NAP, [BCG] 50 μM",18.38 kcal/mol
same,Binding Chemical Potentials (ΔG^O37),"[2]; WT HSA with 50 μM NAP, [BCG] 75 μM",18.74 kcal/mol
same,Binding Chemical Potentials (ΔG^O37),"[2]; WT HSA with 50 μM NAP, [BCG] 150 μM",19.86 kcal/mol
same,Binding Chemical Potentials (ΔG^O37),"biotinylated HSA (HSAB); HSAB 1:1 with 50 μM BCG, [NAP] 0 μM",18.49 kcal/mol
same,Binding Chemical Potentials (ΔG^O37),"biotinylated HSA (HSAB); HSAB 1:1 with 50 μM NAP, [BCG] 50 μM",21.76 kcal/mol
same,Binding Chemical Potentials (ΔG^O37),"biotinylated HSA (HSAB); HSAB 1:1 with 50 μM NAP, [BCG] 75 μM",22.56 kcal/mol
same,Binding Chemical Potentials (ΔG^O37),"biotinylated HSA (HSAB); HSAB 1:1 with 50 μM NAP, [BCG] 150 μM",22.96 kcal/mol
same,Binding Chemical Potentials (ΔG^O37),"biotinylated HSA (HSAB); HSAB 1:5 with 50 μM BCG, [NAP] 0 μM",21.27 kcal/mol
same,Binding Chemical Potentials (ΔG^O37),"biotinylated HSA (HSAB); HSAB 1:5 with 50 μM NAP, [BCG] 50 μM",24.12 kcal/mol
same,Binding Chemical Potentials (ΔG^O37),"biotinylated HSA (HSAB); HSAB 1:5 with 50 μM NAP, [BCG] 75 μM",25.60 kcal/mol
same,Binding Chemical Potentials (ΔG^O37),"biotinylated HSA (HSAB); HSAB 1:5 with 50 μM NAP, [BCG] 150 μM",25.06 kcal/mol
same,Binding Chemical Potentials (ΔG^O37),"biotinylated HSA (HSAB); HSAB 1:10 with 50 μM BCG, [NAP] 0 μM",22.37 kcal/mol
same,Binding Chemical Potentials (ΔG^O37),"biotinylated HSA (HSAB); HSAB 1:10 with 50 μM NAP, [BCG] 50 μM",25.04 kcal/mol
same,Binding Chemical Potentials (ΔG^O37),"biotinylated HSA (HSAB); HSAB 1:10 with 50 μM NAP, [BCG] 75 μM",25.30 kcal/mol
same,Binding Chemical Potentials (ΔG^O37),"biotinylated HSA (HSAB); HSAB 1:10 with 50 μM NAP, [BCG] 150 μM",24.99 kcal/mol
same,Kd,HSA [3]; read-out: Average Measured KD; binding to HSA; single value or value marked 1),3.31 µM
same,Kd,HSA [3]; read-out: Measured KD From TM; binding to HSA; single value or value marked 1),4.97 µM
same,Kd,HSA [3]; read-out: Measured KD from ΔG^037; binding to HSA; single value or value marked 1),1.64 µM
same,binding stoichiometry n on HSA,"HSA [4]; NAP Sudlow site II, BCG Sudlow site I",3
same,Kd,HSA [4],1.43 µM
same,shift in Tm,human plasma; 100 μM ligand,about 7 °C
same,enthalpy (ΔHcal) of plasma with ligand,human plasma; 100 μM ligand (FIG. 10A),141 kcal/mol
same,major Tm peak of plasma shifted to,human plasma; 100 μM ligand (FIG. 10A),72 °C
O=C([O-])CN1CCN(CC(=O)[O-])CCN([C@H](CO)[C@H](O)CO)CCN(CC(=O)[O-])CC1.[Gd+3] [Gadavist (GAD)],Measured HSA binding (cell spanning the measured KD columns; same in text),HSA [5],No Binding Detected
CNC[C@H](O)[C@@H](O)[C@H](O)[C@H](O)CO.CNC[C@H](O)[C@@H](O)[C@H](O)[C@H](O)CO.O=C([O-])CN(CCN(CC(=O)[O-])CC(=O)O)CCN(CC(=O)[O-])CC(=O)O.[Gd+3] [Magnevist (MAG)],Measured HSA binding (cell spanning the measured KD columns; same in text),HSA [5],No Binding Detected
"CCCCNc1ccc(C(=O)OCCN(C)C)cc1 [Tet, Tetracaine]",Binding Site stoichiometry,[1],1
same,Implied number of sites,[1],1
same,in vivo activity,[6],retained significant activity after several days
same,Kd,"HSA [3]; Average Measured KD, binding to HSA; single value or value marked 1)",26.1 µM
same,Kd,"HSA [3]; Measured KD From TM, binding to HSA; single value or value marked 1)",23.6 µM
same,Kd,"HSA [3]; Measured KD from ΔG^037, binding to HSA; single value or value marked 1)",28.6 µM
same,Kd,HSA [4],59.8 µM
same,effect on fibrinogen melting transition peak (52° C.) of the plasma thermogram,human plasma; 2 mg/mL ligand,slight change
same,Tm where the HSA in plasma transition occurs,"human plasma; 2 mg/mL ligand, control 62-64° C.",63-65 °C
